Experimental data published in patent US8735406B2, “8-oxodihydropurine derivative” (Dainippon Sumitomo Pharma Co., Ltd., priority 2009, dated 2014).
Read-outs that look alike come from different tables or passages of the source.

Target: T1, FAAH (Rattus norvegicus, UniProt P97612)
T1 construct: Preparation of Rat Brain Membranes Preparations (FAAH Enzyme Solution); from tissue; host or cells: rat cerebrum (brain membrane preparation)
T1 sequence (P97612 1-579): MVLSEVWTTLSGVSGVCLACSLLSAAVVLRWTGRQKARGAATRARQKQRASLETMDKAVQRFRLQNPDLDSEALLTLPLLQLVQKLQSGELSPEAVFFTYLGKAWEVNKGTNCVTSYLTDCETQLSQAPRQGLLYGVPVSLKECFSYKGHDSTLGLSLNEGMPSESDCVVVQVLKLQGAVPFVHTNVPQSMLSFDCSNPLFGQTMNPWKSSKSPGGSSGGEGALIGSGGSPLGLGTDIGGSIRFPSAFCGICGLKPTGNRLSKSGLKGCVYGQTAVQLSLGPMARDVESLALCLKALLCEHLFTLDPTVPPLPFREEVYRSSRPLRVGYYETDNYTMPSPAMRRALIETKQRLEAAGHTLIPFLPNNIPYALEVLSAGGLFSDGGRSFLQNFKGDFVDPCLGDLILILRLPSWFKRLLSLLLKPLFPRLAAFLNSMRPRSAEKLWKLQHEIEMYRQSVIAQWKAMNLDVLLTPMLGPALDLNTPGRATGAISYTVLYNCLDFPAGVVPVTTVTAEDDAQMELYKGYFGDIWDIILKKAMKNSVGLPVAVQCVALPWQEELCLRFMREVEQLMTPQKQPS
Test: Determination of FAAH inhibitory activity in rat (rat brain membrane preparations, [3H]-anandamide hydrolysis)
Assay type: biochemical
Details: rat brain membrane preparations; for IC50: read-out: FAAH Inhibition IC50
Method in brief: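 Compounds tested from 0.1 nM to 1 μM to derive IC50 against FAAH hydrolysis in rat brain membrane preparations (100 μg/mL). A 10-min 37 °C preincubation was followed by 10 min with [3H]-anandamide (2 nM) mixed with 2 μM unlabelled anandamide. Radioactive ethanolamine was extracted into the water/methanol layer and counted.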

[1] = 100 nM test substance, read-out: FAAH Inhibition, Inhibition Rate at 100 nM
[2] = at 100 nM, read-out: FAAH Inhibition Inhibition Rate at 100 nM

CCOCc1ncc2c(n1)n(C)c(=O)n2C(=O)N1CC(c2ccccc2)C1 [Example 460, 2-(Ethoxymethyl)-9-methyl-7-[(3-phenylazetidin-1-yl)carbonyl]-7,9-dihydro-8H-purine-8-one]
inhibition at 0.1 µM [1]: 108% | IC50 (test substance 0.1 nM to 1 μM): 11 nM

CCn1c(=O)n(C(=O)N(C)C)c2nc(CCc3cccc(F)c3)ncc21 [Example 644, 7-Ethyl-2-[2-(3-fluorophenyl)ethyl]-N,N-dimethyl-8-oxo-7,8-dihydro-9H-purine-9-carboxamide]
inhibition at 0.1 µM [2]: 95% | IC50: 10 nM

COc1cccc(-c2ncc3c(n2)n(C)c(=O)n3C(=O)N(C)CCOc2ccc(F)cc2)c1 [Example 91, N-[2-(4-Fluorophenoxy)ethyl]-2-(3-methoxyphenyl)-N,9-dimethyl-8-oxo-8,9-dihydro-7H-purine-7-carboxamide]
inhibition at 0.1 µM [1]: 103% | IC50 (test substance 0.1 nM to 1 μM): 1 nM

CN(C)C(=O)n1c(=O)n(C)c2cnc(CCCCc3ccccc3)nc21 [Example 618]
inhibition at 0.1 µM [2]: 101% | IC50: 10 nM

Cn1c(=O)n(C(=O)N2CCCC2)c2cnc(Cc3ccc(C#N)cc3)nc21 [compound 264]
inhibition at 0.1 µM [1]: 91% | IC50 (test substance 0.1 nM to 1 μM): 54 nM

CCN(C)C(=O)n1c(=O)n(C)c2nc(CC(C)(C)C)ncc21 [Example 160, 2-(2,2-Dimethylpropyl)-N-ethyl-N,9-dimethyl-8-oxo-8,9-dihydro-7H-purine-7-carboxamide]
inhibition at 0.1 µM [1]: 98% | IC50 (test substance 0.1 nM to 1 μM): 14 nM

CN(C)C(=O)n1c(=O)n(C)c2cnc(-c3cccc(OCC(F)(F)F)c3)nc21 [Example 336]
inhibition at 0.1 µM [1]: 85% | IC50 (test substance 0.1 nM to 1 μM): 20 nM

COc1cccc(-c2ncc3c(n2)n(C)c(=O)n3C(=O)N2CCN(CCc3ccccc3)CC2)c1 [Example 67, 2-(3-Methoxyphenyl)-9-methyl-7-{[4-(2-phenylethyl-)piperazin-1-yl]carbonyl}-7,9-dihydro-8H-purine-8-one]
inhibition at 0.1 µM [1]: 97% | IC50 (test substance 0.1 nM to 1 μM): 7 nM

COc1cccc(-c2ncc3c(n2)n(C)c(=O)n3C(=O)N(C)CCc2nc(-c3ccccc3)no2)c1 [Example 104, 2-(3-Methoxyphenyl)-N,9-dimethyl-8-oxo-N-[2-(3-phenyl-1,2,4-oxadiazol-5-yl)ethyl]-8,9-dihydro-7H-purine-7-carboxamide]
inhibition at 0.1 µM [1]: 101% | IC50 (test substance 0.1 nM to 1 μM): 3 nM

CCCn1c(=O)n(C(=O)N2CCCC2)c2cnc(-c3ccccc3)nc21 [Example 304, 2-Phenyl-9-propyl-7-(pyrrolidin-1-ylcarbonyl)-7,9-dihydro-8H-purine-8-one]
inhibition at 0.1 µM [1]: 100% | IC50 (test substance 0.1 nM to 1 μM): 9 nM

Cn1c(=O)n(C(=O)N2CCN(c3ccc(C#N)cc3)CC2)c2cnc(-c3ccccc3)nc21 [Example 132, 4-{4-[(9-Methyl-8-oxo-2-phenyl-8,9-dihydro-7H-purine-7-yl)carbonyl]piperazin-1-yl}benzonitrile]
inhibition at 0.1 µM [1]: 99% | IC50 (test substance 0.1 nM to 1 μM): 6 nM

COc1cccc(-c2ncc3c(n2)n(C)c(=O)n3C(=O)N(C)Cc2ccc(OC(F)(F)F)cc2)c1 [Example 83, 2-(3-Methoxyphenyl)-N,9-dimethyl-8-oxo-N-[4-(trifluoromethoxy)benzyl]-8,9-dihydro-7H-purine-7-carboxamide]
inhibition at 0.1 µM [1]: 93% | IC50 (test substance 0.1 nM to 1 μM): 25 nM

CCc1cccc(CCc2ncc3c(n2)n(C(=O)N(C)C)c(=O)n3C)c1 [compound 516]
inhibition at 0.1 µM [1]: 100% | IC50 (test substance 0.1 nM to 1 μM): 10 nM

CN(C)C(=O)n1c(=O)n(C)c2cnc(-c3cccc(OC(F)(F)F)c3)nc21 [compound 319]
inhibition at 0.1 µM [1]: 95% | IC50 (test substance 0.1 nM to 1 μM): 18 nM

Cn1c(=O)n(C(=O)N2CCCC2)c2cnc(C3CCCCC3)nc21 [Example 316, 2-cyclohexy-9-methyl-7-(pyrrolidin-1-ylcarbonyl)-7,9-dihydro-8H-purine-8-one]
inhibition at 0.1 µM [1]: 80% | IC50 (test substance 0.1 nM to 1 μM): 55 nM

CC(c1ccccc1)c1ncc2c(n1)n(C)c(=O)n2C(=O)N1CCCC1 (stereo not shown) [Example 273]
inhibition at 0.1 µM [1]: 89% | IC50 (test substance 0.1 nM to 1 μM): 47 nM

COc1cccc(-c2ncc3c(n2)n(C)c(=O)n3C(=O)N(C)CCOCC2CC2)c1 [Example 116, N-[2-(Cyclopropylmethoxy)ethyl]-2-(3-methoxyphenyl)-N,9-dimethyl-8-oxo-8,9-dihydro-7H-purine-7-carboxamide]
inhibition at 0.1 µM [1]: 110% | IC50 (test substance 0.1 nM to 1 μM): 2 nM

CN(CCOc1ccc(Cl)cc1)C(=O)n1c(=O)n(C)c2nc(-c3cccnc3)ncc21 [Example 146, N-[2-(4-Chlorophenoxy)ethyl]-N,9-dimethyl-8-oxo-2-(pyridin-3-yl)-8,9-dihydro-7H-purine-7-carboxamide]
inhibition at 0.1 µM [1]: 99% | IC50 (test substance 0.1 nM to 1 μM): < 1 nM

Cn1c(=O)n(C(=O)N2CCCC2)c2cnc(-c3ccc(F)cc3)nc21 [Example 168, 2-(4-Fluorophenyl)-9-methyl-7-(pyrrolidin-1-ylcarbonyl)-7,9-dihydro-8H-purine-8-one]
inhibition at 0.1 µM [1]: 100% | IC50 (test substance 0.1 nM to 1 μM): 6 nM

COCc1ncc2c(n1)n(C)c(=O)n2C(=O)N1CC[C@H](Oc2ccccc2C)C1 [Example 486, 2-(Methoxymethyl)-9-methyl-7-{[(3S)-3-(2-methylphenoxy)pyrrolidin-1-yl]carbonyl}-7,9-dihydro-8H-purine-8-one]
inhibition at 0.1 µM [1]: 113% | IC50 (test substance 0.1 nM to 1 μM): 2 nM

Cc1ccccc1Cc1ncc2c(n1)n(C)c(=O)n2C(=O)N1CCCC1 [Example 257, 9-Methyl-2-(2-methylbenzyl)-7-(pyrrolidin-1-ylcarbonyl)-7,9-dihydro-8H-purine-8-one]
inhibition at 0.1 µM [1]: 88% | IC50 (test substance 0.1 nM to 1 μM): 51 nM

CCOc1ccc(N2CCN(C(=O)n3c(=O)n(C)c4nc(-c5ccccc5)ncc43)CC2)cc1 [Example 131, 7-{[4-(4-Ethoxyphenyl)piperazin-1-yl]carbonyl}-9-methyl-2-phenyl-7,9-dihydro-8H-purine-8-one]
inhibition at 0.1 µM [1]: 99% | IC50 (test substance 0.1 nM to 1 μM): 4 nM

CCOc1ccc(N2CCN(C(=O)n3c(=O)n(C)c4nc(-c5ccncc5)ncc43)CC2)cc1 [Example 149, 7-{[4-(4-Ethoxyphenyl)piperazin-1-yl]carbonyl}-9-methyl-2-(pyridin-4-yl)-7,9-dihydro-8H-purine-8-one]
inhibition at 0.1 µM [1]: 102% | IC50 (test substance 0.1 nM to 1 μM): < 1 nM

COc1cccc(-c2ncc3c(n2)n(C)c(=O)n3C(=O)N2CC=C(/C=C/c3ccc(Cl)cc3)CC2)c1 [Example 94, 7-({4-[(E)-2-(4-Chlorophenyl)ethenyl]-3,6-dihydropyridin-1(2H)-yl}carbonyl)-2-(3-methoxyphenyl)-9-methyl-7,9-dihydro-8H-purine-8-one]
inhibition at 0.1 µM [1]: 101% | IC50 (test substance 0.1 nM to 1 μM): 7 nM

CCc1ccc(CCc2ncc3c(n2)n(C(=O)N(C)C)c(=O)n3C)cc1 [compound 503]
inhibition at 0.1 µM [1]: 101% | IC50 (test substance 0.1 nM to 1 μM): 10 nM

CN(C)C(=O)n1c(=O)n(C)c2cnc(CCCOc3cccc(F)c3)nc21 [Example 395]
inhibition at 0.1 µM [1]: 78% | IC50 (test substance 0.1 nM to 1 μM): 32 nM

CCCc1ncc2c(n1)n(C)c(=O)n2C(=O)N1CC(c2ccc(F)cc2)C1 [compound 624]
inhibition at 0.1 µM [2]: 97% | IC50: 18 nM

COc1ccccc1-c1ncc2c(n1)n(C)c(=O)n2C(=O)N1CCCC1 [compound 172]
inhibition at 0.1 µM [1]: 67% | IC50 (test substance 0.1 nM to 1 μM): 69 nM

Cn1c(=O)n(C(=O)N2CCN(c3ccc(Cl)cc3)CC2)c2cnc(-c3ccccc3)nc21 [Example 126, 7-{[4-(4-Chlorophenyl)piperazin-1-yl]carbonyl}-9-methyl-2-phenyl-7,9-dihydro-8H-purine-8-one]
inhibition at 0.1 µM [1]: 99% | IC50 (test substance 0.1 nM to 1 μM): 7 nM

COCc1ncc2c(n1)n(C)c(=O)n2C(=O)N1CC(c2cccc(F)c2)C1 [Example 440, 7-{[3-(3-Fluorophenyl)azetidin-1-yl]carbonyl}-2-(methoxymethyl)-9-methyl-7,9-dihydro-8H-purine-8-one]
inhibition at 0.1 µM [1]: 88% | IC50 (test substance 0.1 nM to 1 μM): 21 nM

CCOc1ccc(N2CCN(C(=O)n3c(=O)n(C)c4nc(-c5cccnc5)ncc43)CC2)cc1 [Example 144, 7-{[4-(4-Ethoxyphenyl)piperazin-1-yl]carbonyl}-9-methyl-2-(pyridin-3-yl)-7,9-dihydro-8H-purine-8-one]
inhibition at 0.1 µM [1]: 100% | IC50 (test substance 0.1 nM to 1 μM): < 1 nM

CN(CCCCc1ccccc1)C(=O)n1c(=O)n(C)c2nc(-c3ccccc3)ncc21 [Example 36, N,9-Dimethyl-8-oxo-2-phenyl-N-(4-phenylbutyl)-8,9-dihydro-7H-purine-7-carboxamide]
inhibition at 0.1 µM [1]: 98% | IC50 (test substance 0.1 nM to 1 μM): 7 nM

Cn1c(=O)n(C(=O)N2CCC2)c2nc(-c3ccccc3)ncc21 [compound 352]
inhibition at 0.1 µM [1]: 42% | IC50 (test substance 0.1 nM to 1 μM): 164 nM

COCCN(C)C(=O)n1c(=O)n(C)c2nc(-c3ccccc3)ncc21 [Example 39, N-(2-Methoxyethyl)-N,9-dimethyl-8-oxo-2-phenyl-8,9-dihydro-7H-purine-7-carboxamide]
inhibition at 0.1 µM [1]: 98% | IC50 (test substance 0.1 nM to 1 μM): 43 nM

CCOc1cccc(CCc2ncc3c(n2)n(C(=O)N2CCC2)c(=O)n3C)c1 [compound 604]
inhibition at 0.1 µM [2]: 92% | IC50: 15 nM
